According to patent publication US20060252045A1, “Methods and materials for identifying agents which modulate bone remodeling and agents identified thereby” (priority 2003, published 2006):

Key:
[1] = tested on: Wnt/β-catenin target gene expression in MC3T3 cells; assay: Flexercell mechanical load gene expression in MC3T3 cells (real-time PCR); settings: for load induced Frizzled 2, eNOS, Fos and Jun gene expression: MC3T3, 1-60 μM added 1 hr prior to load; for load induced Connexin 43, Cyclin D1, Wnt 10b, SFRP1 and COX-2 gene expression: MC3T3, 1-60 μM added 1 hr prior to load (3,400 με, 5 hrs)
Method: For these experiments, the mouse MC3T3 osteoblastic cells were cultured in alpha minimum essential media (αMEM) (Invitrogen) supplemented with 10% heat inactivated FBS, 1% glutamax (Invitrogen) and 1% penicillin/streptomycin (Invitrogen). […] For those samples being pretreated in serum free media the cells were washed twice each with 2 mL of basal αMEM media prior to adding the BSA containing media. […] The cells were then subjected to mechanical distortion equivalent to 3,400 με (2 Hz, 7200 cycles/hr), for 5 hrs using a FX-3000 Flexercell® strain unit (Flexcell International Corp). RNA was then harvested (using the Qiagen Rneasy mini kit) immediately or 24 hr post loading from both the mechanical strained samples as well as the non-strained controls. All data shown in the examples that utilize the FlexerCell were derived from the RNA immediately harvested following loading.
Real-time PCR was then performed for the indicated genes using mouse gene specific primers and probes as discussed above.
RNA was isolated immediately after application of load and processed for TaqMan® analysis. The transcripts analyzed were COX-2, eNOS, Connexin 43, SFRP1, Wnt10B, cyclin D1, Frizzled 2, WISP2, Fos and Jun (FIG. 15).
Here, Wnt 3A conditioned media was obtained from mouse L-cells transfected with murine Wnt 3A. The MC3T3 cells were seeded and cultured for 3 days in growth media until confluence, as described above. The media for the MC3T3 cells was then changed to BSA containing media, and the cells were incubated for 24 hours. The BSA-containing media was then removed and replaced with fresh BSA media at a final volume of 1 mL containing various amounts of L-cell Wnt 3A conditioned media or control conditioned media from untransfected L-cells. The amount of Wnt 3A conditioned media varied from 0.5, 2.0, 5.0, 10.0, 20.0 and 100 μL in a final volume of 1 ml serum free BSA media. The MC3T3 cells were then subjected to 3,400 με at 2 Hz, 7200 cycles/hr for 5 hours as described in the prior examples.

mouse calvariae = assay: Mouse calvarial model: calvarial thickness (histomorphometry); assay type: in vivo; settings: 20 μg/kg/day
Method: Following sacrifice by CO2 narcosis, calvariae were removed intact, soft tissues were gently dissected, and the bones were fixed in 70% ethanol for 24 h for further processing and analysis. Calvariae were then bisected perpendicular to the sagittal suture through the central portion of the parietal bones parallel to the lambdoidal and coronal sutures. The anterior portion of the calvaria was used for paraffin sections, and the posterior portion of the calvaria was used for frozen sections. Four to five 5 μm-thick representative, non-consecutive step sections were cut. The paraffin sections are routinely stained with hematoxylin and eosin (H&E) for the measurement of calvarial thickness. The frozen sections were used for alkaline phosphatase detection. To facilitate histomorphometric measurements, a standard length of 2 mm of each section from the edge of the sagittal suture to the muscle insertion at the lateral border of each bone was used. All measurements were made using the R&M Biometrics Inc. Bioquant Image Analysis System.

[2] = tested on: alkaline phosphatase activity in calvarial osteoblasts; assay: Mouse calvarial model: alkaline phosphatase histochemical staining; assay type: in vivo; settings: local administration, 7 days, vs vehicle
Method: Following sacrifice by CO2 narcosis, calvariae were removed intact, soft tissues were gently dissected, and the bones were fixed in 70% ethanol for 24 h for further processing and analysis. Calvariae were then bisected perpendicular to the sagittal suture through the central portion of the parietal bones parallel to the lambdoidal and coronal sutures. The anterior portion of the calvaria was used for paraffin sections, and the posterior portion of the calvaria was used for frozen sections. Four to five 5 μm-thick representative, non-consecutive step sections were cut. […] The frozen sections were used for alkaline phosphatase detection. To facilitate histomorphometric measurements, a standard length of 2 mm of each section from the edge of the sagittal suture to the muscle insertion at the lateral border of each bone was used. All measurements were made using the R&M Biometrics Inc. Bioquant Image Analysis System.
The activity of Alkaline Phosphatase (ALPase) was assessed with a histochemical stain using a Vector Red Alkaline Phosphatase Substrate Kit (Vector Laboratories, Inc. Burlingame, Calif.) in 6 μm frozen sections of the mouse parietal bone after fixing in 70% Ethanol.

β-catenin = assay: Mouse calvarial model: β-catenin immunohistochemistry; assay type: in vivo; settings: local injection
Method: Following sacrifice by CO2 narcosis, calvariae were removed intact, soft tissues were gently dissected, and the bones were fixed in 70% ethanol for 24 h for further processing and analysis. Calvariae were then bisected perpendicular to the sagittal suture through the central portion of the parietal bones parallel to the lambdoidal and coronal sutures. The anterior portion of the calvaria was used for paraffin sections, and the posterior portion of the calvaria was used for frozen sections. Four to five 5 μm-thick representative, non-consecutive step sections were cut.
After fixation, the anterior portion of the calvaria was decalcified in Surgipath Decalcifier II (Richmond, Ill.) for 7-8 h and then dehydrated in graded alcohol. Four to five 5 μm-thick representative, non-consecutive coronal step paraffin sections were cut. […] The binding of the antibody to the epitope was visualized (1 μg/1 mL) using an avidin-linked AP system (Vector Laboratories, Burlingame, Calif.). Controls comprised samples with the avidin-AP in the absence of primary antibody.

[3] = tested on: Dkk1 suppressed Wnt1/Wnt 3A TCF-signal in U2OS cells; assay: Release of Dkk1 mediated inhibition of TCF-signal in U2OS cells; assay type: cell-based, human; settings: Dkk1 0.1 μg/well co-transfected with Wnt1 or Wnt 3A
Method: The final readout is activation of Dkk1 mediated suppressed TCF-signal. […] The experiment represented in FIG. 2 involved U2OS (ATCC) bone cells and is based on the endogenous expression of LRP5/6 receptors. […] 10 μL of the 15× stock was added per well along with appropriately diluted vehicle (i.e., DMSO) control.

CS(=O)(=O)Nc1ccc([N+](=O)[O-])cc1OC1CCCCC1 [NS-398, N-(2-cyclohexyloxy-4-nitrophenyl)methanesulfonamide]
load induced Frizzled 2, eNOS, Fos and Jun gene expression [1]: no effect
load induced Connexin 43, Cyclin D1, Wnt 10b, SFRP1 and COX-2 gene expression [1]: block the induction
load induced Connexin 43, Cyclin D1, Wnt 10b, SFRP1 and COX-2 gene expression ([1]; listed as COX-2 inhibitor): does not induce transcription
load induced Frizzled 2, eNOS, Fos and Jun gene expression ([1]; listed as COX-2 inhibitor): independent of COX-2 activity

Human PTH (1-34): Human parathyroid hormone (1-34), positive control in the calvarial model (SVSEIQLMHNLGKHLNSMERVEWLRKKLQDVHNF; Parathyroid hormone; UniProt P01270 32-65, looked up, fragment)
effect on calvarial thickness (positive control) (mouse calvariae): significant increase in calvarial thickness
alkaline phosphatase (ALPase) activity in osteoblasts [2]: markedly enhanced
β-catenin expression in osteoblastic cells lining the periosteum (β-catenin): no effect

Wnt 3A
cyclin D1, connexin 43, SFRP1, Wnt 10B, WISP2, COX-2, FOS and JUN gene expression, alone ([1]; MC3T3, Wnt 3A conditioned media, no load): no effect

B1: Dkk1: Wnt antagonist co-transfected into U2OS cells; inhibits LRP5 activity (protein, UniProt O94907 32-266, looked up)
Dickkopf-related protein 1: TLNSVLNSNAIKNLPPPLGGAAGHPGSAVSAAPGILYPGGNKYQTIDNYQPYPCAEDEECGTDEYCASPTRGGDAGVQICLACRKRRKRCMRHAMCCPGNYCKNGICVSSDQNHFRGEIEETITESFGNDHSTLDGYSRRTTLSSKMYHTKGQEGSVCLRSSDCASGLCCARHFWSKICKPVLKEGQVCTKHRRKGSHGLEIFQRCYCGEGLSCRIQKDHHQASNSSRLHTCQRH
effect on Wnt1/Wnt 3A TCF-activity [3]: suppressed almost completely
